From PubChem BioAssay AID1963432 (Molecular Pharmacology Branch, DTP, NCI, 2024)

Test system: SYO-1 complex spheroid growth, percent test/control
Assay: Anticancer human tumor SYO-1 cell line growth inhibition [Asc];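 note: compound exposure lasted 7 days after spheroids grew 3 days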;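 for viability, T/C: 100% = DMSO vehicle control viability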
Conditions: for IC50: curve of first compound; for viability, T/C: stronger effect = lower value
Method in brief: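 Stromal components (HUVEC and hMSC) are co-assembled with the cancer cells into multicellular spheroids. Drugs are then added singly or paired, at concentrations falling by half-log increments from a clinically achievable maximum, capped at 10 microM without known Cmax.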

[1] = second compound 0.0316 µM, first compound 0.000316 µM
[2] = second compound 0.0316 µM, first compound 0.001 µM
[3] = second compound 0.0316 µM, first compound 0.00316 µM
[4] = second compound 0.0316 µM, first compound 0.01 µM
[5] = second compound 0.0316 µM, first compound 0.0316 µM
[6] = second compound 0.0316 µM, first compound 0.1 µM
[7] = second compound 0.1 µM, first compound 0.000316 µM
[8] = second compound 0.1 µM, first compound 0.001 µM
[9] = second compound 0.1 µM, first compound 0.00316 µM
[10] = second compound 0.1 µM, first compound 0.01 µM
[11] = second compound 0.1 µM, first compound 0.0316 µM
[12] = second compound 0.1 µM, first compound 0.1 µM
[13] = second compound 0.316 µM, first compound 0.000316 µM
[14] = second compound 0.316 µM, first compound 0.001 µM
[15] = second compound 0.316 µM, first compound 0.00316 µM
[16] = second compound 0.316 µM, first compound 0.01 µM
[17] = second compound 0.316 µM, first compound 0.0316 µM
[18] = second compound 0.316 µM, first compound 0.1 µM
[19] = second compound 1 µM, first compound 0.000316 µM
[20] = second compound 1 µM, first compound 0.001 µM
[21] = second compound 1 µM, first compound 0.00316 µM
[22] = second compound 1 µM, first compound 0.01 µM
[23] = second compound 1 µM, first compound 0.0316 µM
[24] = second compound 1 µM, first compound 0.1 µM
[25] = second compound 3.16 µM, first compound 0.000316 µM
[26] = second compound 3.16 µM, first compound 0.001 µM
[27] = second compound 3.16 µM, first compound 0.00316 µM
[28] = second compound 3.16 µM, first compound 0.01 µM
[29] = second compound 3.16 µM, first compound 0.0316 µM
[30] = second compound 3.16 µM, first compound 0.1 µM
[31] = second compound 10 µM, first compound 0.000316 µM
[32] = second compound 10 µM, first compound 0.001 µM
[33] = second compound 10 µM, first compound 0.00316 µM
[34] = second compound 10 µM, first compound 0.01 µM
[35] = second compound 10 µM, first compound 0.0316 µM
[36] = second compound 10 µM, first compound 0.1 µM

NC1CCC(NC2CC2c2ccccc2)CC1 (stereo unspecified) + Cc1c(S(C)(=O)=O)c(-c2cc(F)cc(N3CCN(c4ccc(NS(=O)(=O)c5ccc(NC(CCN6CCC(C(=O)OCCCP(=O)(O)O)CC6)CSc6ccccc6)c(S(=O)(=O)C(F)(F)F)c5)cc4)CC3)c2)c(-c2ccc(Cl)cc2)n1C(C)C
IC50 (second compound 0.0316 µM): > 100 nM | IC50 (second compound 0.1 µM): > 100 nM | IC50 (second compound 0.316 µM): > 100 nM | IC50 (second compound 1 µM): > 100 nM | IC50 (second compound 3.16 µM): > 100 nM | IC50 (second compound 10 µM): > 100 nM | viability, T/C [1]: 100% | viability, T/C [2]: 92.1% | viability, T/C [3]: 90.5% | viability, T/C [4]: 84.8% | viability, T/C [5]: 86.9% | viability, T/C [6]: 89% | viability, T/C [7]: 96.5% | viability, T/C [8]: 92.7% | viability, T/C [9]: 86.3% | viability, T/C [10]: 87.1% | viability, T/C [11]: 91.8% | viability, T/C [12]: 86.5% | viability, T/C [13]: 105% | viability, T/C [14]: 91.8% | viability, T/C [15]: 87.9% | viability, T/C [16]: 91.7% | viability, T/C [17]: 89.1% | viability, T/C [18]: 86.9% | viability, T/C [19]: 92.2% | viability, T/C [20]: 88.5% | viability, T/C [21]: 96.9% | viability, T/C [22]: 92.3% | viability, T/C [23]: 90.6% | viability, T/C [24]: 85.8% | viability, T/C [25]: 91.3% | viability, T/C [26]: 85.3% | viability, T/C [27]: 88.7% | viability, T/C [28]: 85.8% | viability, T/C [29]: 79.8% | viability, T/C [30]: 87.2% | viability, T/C [31]: 85.7% | viability, T/C [32]: 85.4% | viability, T/C [33]: 80.5% | viability, T/C [34]: 82.4% | viability, T/C [35]: 83.3% | viability, T/C [36]: 79.7%

Cn1ncnc1[C@H]1c2n[nH]c(=O)c3cc(F)cc(c23)N[C@@H]1c1ccc(F)cc1 + Cc1c(S(C)(=O)=O)c(-c2cc(F)cc(N3CCN(c4ccc(NS(=O)(=O)c5ccc(NC(CCN6CCC(C(=O)OCCCP(=O)(O)O)CC6)CSc6ccccc6)c(S(=O)(=O)C(F)(F)F)c5)cc4)CC3)c2)c(-c2ccc(Cl)cc2)n1C(C)C
IC50 (second compound 0.0316 µM): 19.3 nM | IC50 (second compound 0.1 µM): 18.1 nM | IC50 (second compound 0.316 µM): 15.3 nM | IC50 (second compound 1 µM): 10.2 nM | IC50 (second compound 3.16 µM): 5.98 nM | IC50 (second compound 10 µM): 4.59 nM | viability, T/C [1]: 108% | viability, T/C [2]: 96.5% | viability, T/C [3]: 99.6% | viability, T/C [4]: 80% | viability, T/C [5]: 27.4% | viability, T/C [6]: 6.64% | viability, T/C [7]: 97.6% | viability, T/C [8]: 99% | viability, T/C [9]: 87.1% | viability, T/C [10]: 85.2% | viability, T/C [11]: 17.2% | viability, T/C [12]: 4.83% | viability, T/C [13]: 97.1% | viability, T/C [14]: 95.4% | viability, T/C [15]: 94.5% | viability, T/C [16]: 73.6% | viability, T/C [17]: 9.3% | viability, T/C [18]: 3.79% | viability, T/C [19]: 93.4% | viability, T/C [20]: 98.6% | viability, T/C [21]: 88.6% | viability, T/C [22]: 51.5% | viability, T/C [23]: 7.18% | viability, T/C [24]: 3.35% | viability, T/C [25]: 97.2% | viability, T/C [26]: 89.5% | viability, T/C [27]: 80.1% | viability, T/C [28]: 26% | viability, T/C [29]: 4.8% | viability, T/C [30]: 2.64% | viability, T/C [31]: 85.9% | viability, T/C [32]: 90% | viability, T/C [33]: 65.6% | viability, T/C [34]: 16.4% | viability, T/C [35]: 3.2% | viability, T/C [36]: 2.36%

CCN1CCN(Cc2ccc(Nc3ncc(F)c(-c4cc(F)c5nc(C)n(C(C)C)c5c4)n3)nc2)CC1 + CCN1C(C(=O)NC23CCC(C(=O)O)(CC2)CC3)C(c2cccc(Cl)c2F)C2(C(=O)Nc3cc(Cl)ccc32)C12CCCCC2
IC50 (second compound 0.00949 µM): > 1000 nM | IC50 (second compound 0.03 µM): > 1000 nM | IC50 (second compound 0.0949 µM): 446 nM | IC50 (second compound 0.3 µM): < 3.16 nM | IC50 (second compound 0.949 µM): < 3.16 nM | IC50 (second compound 3 µM): < 3.16 nM | viability, T/C (second compound 0.00949 µM, first compound 0.00316 µM): 105% | viability, T/C (second compound 0.00949 µM, first compound 0.01 µM): 105% | viability, T/C (second compound 0.00949 µM, first compound 0.0316 µM): 116% | viability, T/C (second compound 0.00949 µM, first compound 0.1 µM): 119% | viability, T/C (second compound 0.00949 µM, first compound 0.316 µM): 121% | viability, T/C (second compound 0.00949 µM, first compound 1 µM): 102% | viability, T/C (second compound 0.03 µM, first compound 0.00316 µM): 98.8% | viability, T/C (second compound 0.03 µM, first compound 0.01 µM): 101% | viability, T/C (second compound 0.03 µM, first compound 0.0316 µM): 98.9% | viability, T/C (second compound 0.03 µM, first compound 0.1 µM): 117% | viability, T/C (second compound 0.03 µM, first compound 0.316 µM): 106% | viability, T/C (second compound 0.03 µM, first compound 1 µM): 73.1% | viability, T/C (second compound 0.0949 µM, first compound 0.00316 µM): 87% | viability, T/C (second compound 0.0949 µM, first compound 0.01 µM): 85% | viability, T/C (second compound 0.0949 µM, first compound 0.0316 µM): 87.5% | viability, T/C (second compound 0.0949 µM, first compound 0.1 µM): 88.6% | viability, T/C (second compound 0.0949 µM, first compound 0.316 µM): 63% | viability, T/C (second compound 0.0949 µM, first compound 1 µM): 19.5% | viability, T/C (second compound 0.3 µM, first compound 0.00316 µM): 25.1% | viability, T/C (second compound 0.3 µM, first compound 0.01 µM): 20.8% | viability, T/C (second compound 0.3 µM, first compound 0.0316 µM): 20.6% | viability, T/C (second compound 0.3 µM, first compound 0.1 µM): 16.5% | viability, T/C (second compound 0.3 µM, first compound 0.316 µM): 9.85% | viability, T/C (second compound 0.3 µM, first compound 1 µM): 2.81% | viability, T/C (second compound 0.949 µM, first compound 0.00316 µM): 2.61% | viability, T/C (second compound 0.949 µM, first compound 0.01 µM): 2.87% | viability, T/C (second compound 0.949 µM, first compound 0.0316 µM): 2.98% | viability, T/C (second compound 0.949 µM, first compound 0.1 µM): 4.27% | viability, T/C (second compound 0.949 µM, first compound 0.316 µM): 2.21% | viability, T/C (second compound 0.949 µM, first compound 1 µM): 1.42% | viability, T/C (second compound 3 µM, first compound 0.00316 µM): 2.07% | viability, T/C (second compound 3 µM, first compound 0.01 µM): 1.29% | viability, T/C (second compound 3 µM, first compound 0.0316 µM): 2.77% | viability, T/C (second compound 3 µM, first compound 0.1 µM): 1.88% | viability, T/C (second compound 3 µM, first compound 0.316 µM): 3.26% | viability, T/C (second compound 3 µM, first compound 1 µM): 2.37%
